Experimental data from publication PMC3783749 (Indian Journal of Pharmaceutical Sciences, 2013).
≈ marks a conversion by molar mass, not a printed value.

What was measured:
[1] = system: Candida tropicalis (ATCC 1369); assay: Antifungal MIC by broth dilution; format: cell-based; conditions: read-out: MIC values, Ct
[2] = system: Klebsiella pneumoniae ATCC 10031; assay: MIC by broth microdilution method; format: cell-based; conditions: Gram-negative; 37°, 18 h

MIC [1] [µg/mL] | MIC values, Kp [2] [µg/mL] | SMILES
31.2 (≈ 87 µM) |  | Cc1ccc(C)n1-c1ccc(-c2nnc(-c3cccc([N+](=O)[O-])c3)[nH]2)cc1 [Compound 4e, 3-(4-(2,5-Dimethyl-1H-pyrrol-1-yl)phenyl)-5-(3-nitrophenyl)-4H-1,2,4-triazole]
31.2 (≈ 94.6 µM) |  | Cc1ccc(C)n1-c1ccc(-c2nnc(-c3ccc(O)cc3)[nH]2)cc1 [Compound 4g, 4-(5-(4-(2,5-Dimethyl-1H-pyrrol-1-yl)phenyl)-4H-1,2,4-triazol-3-yl) phenol]
 | 31.25 (≈ 121 µM) | Cc1ccc(C)n1-c1ccc(C(=O)NNC=O)cc1 [Compound 5, 4-(2,5-dimethyl-1H-pyrrol-1-yl)-N’-formylbenzohydrazide]
31.2 (≈ 87 µM) |  | Cc1ccc(C)n1-c1ccc(-c2nnc(-c3ccccc3[N+](=O)[O-])[nH]2)cc1 [Compound 4f, 3-(4-(2,5-Dimethyl-1H-pyrrol-1-yl)phenyl)-5-(2-nitrophenyl)-4H-1,2,4-triazole]
